Results reported in PMC5874726, “Comparison Study of Two Differently Clicked ^18F-Folates—Lipophilicity Plays a Key Role” (Pharmaceuticals, 2018).
Where two headings read alike, the source gives them in different places. Each block holds one compound with its values, some of them ahead of it.

What was measured:
[1] = LogD at pH 7.4 via shake-flask method (octanol/PBS); format: physicochemical; conditions: pH 7.4, shake-flask
Method: The lipophilicity was determined by shake flask method in an octanol/PBS mixture. Table 1 gives an overview of logD values for ^18F-Alakyne and ^18F-Ala-folate as well as for ^18F-DBCO and ^18F-DBCO-folate. […] The reduced lipophilicity is expected to be an indicator for less non-specific background signals and a higher renal clearance rate.

[2] = Stability in human serum albumin at 37 °C; conditions: 2 h
Method: The in vitro stability was assessed in human serum albumin at 37 °C.
For testing the stability, 200 µL of ^18F-DBCO-folate or ^18F-Ala-folate (ca. 4 MBq) were incubated at 37 °C in 500 µL human serum albumin. After predetermined time points plasma proteins were precipitated with 600 µL ice-cold acetonitrile followed by centrifugation (10,000 rpm, 10 min). An aliquot of the supernatant was injected into an analytical radio-HPLC.

FR-negative OC316 cells = experiment: Internalization studies in FR-negative OC316 cells; format: cell-based, human; conditions: blocked KB cells and FR-negative OC316 cells
Method: (§1) Two different temperatures (4 °C for receptor binding, 37 °C for receptor binding and internalization) and two different concentrations were assessed. […] Both radiofolates show a concentration as well as temperature depended increase of activity in the FR positive cells. […] This effect is not fully understood, but we presume the high lipophilicity in combination with the increased concentration being responsible for this high non-specific binding. […] Thus, about 90% of ^18F-DBCO-folate remained in solution, which is ideal for such a radiotracer assay set-up (see supporting information for pie chart of activity distribution, Figure S6). For ^18F-Ala-folate the overall receptor-bound and internalized fractions are similar to ^18F-DBCO-folate (see supporting information for pie chart of activity distribution, Figure S7).
As folate-receptor positive control, KB cells (derived from human cervical carcinoma; obtained from German Collection of Microorganisms and Cell Cultures), and OC316 cells (derived from human ovarian adenocarcinoma) as negative control were used. For FACS analysis, data of both cell lines see supporting information Figure S5. The cells were cultured in folate deficient RPMI 1640 medium containing 10% FCS, 1% penicillin-streptomycin and HEPES buffer (10 mM, 5 mL) grown at 37 °C in a humidified atmosphere containing 5% CO2. […]

healthy balb/c mice = experiment: Ex vivo biodistribution in healthy balb/c mice; conditions: healthy balb/c mice, 60 min p.i.
Description: (§2) All animal experiments were approved by the local ethical committee (permission no. 23177-07/G15-1-033). Balb/c and balb/c nude (Balb/c AnNRj-Foxn1nu) mice were kept on a folate-deficient rodent diet to reduce their blood level of folate to one found in humans. After 7 days of acclimatization, human KB tumor cells (2.5 x 10^6 cells in PBS) were inoculated in the right shoulder of each balb/c nude mouse. All in vivo treatments and imaging experiments were done under isoflurane anesthesia. Eleven or twelve days after inoculation, animals were intravenously injected with ^18F-DBCO-Folate and ^18F-Ala-Folate (5–8 MBq, 100–200 µL) via a lateral tail vein. […] PET/MRI-studies were performed on a nanoScan PET/MRI (Mediso, Budapest, Hungary). First MRI scans (Material Map for co-registration of the PET scan; 3D; GRE-EXT, FOV; slice thickness: 0.6 mm; TE: 2 ms; TR: 15 ms; flip angle: 25 deg) were acquired and then either a dynamic scan over 60 min starting with injection of the radiotracer or a static scan for 10 min after 50 min p.i. were performed. All mice, which underwent ex vivo biodistribution, were scanned first. Afterwards co-registered PET/MR images were analyzed via PMOD (version 3.6) and Inveon Research Workplace (version 4.2). For ex vivo biodistribution studies mice were euthanized 60 min p.i. and organs of interest were dissected, weighed, and measured in a γ-counter (PerkinElmer 2470 Wizard2, Perkin Elmer, Rodgau, Germany). The incorporated radioactivity was expressed as percentage of injected dose per gram of tissue (% ID/g).

[3] = parameters: method as in doi:10.1039/C5MD00508F; conditions: pH 7.4, shake-flask; cited from earlier work
FR-positive KB cells = experiment: Internalization studies in FR-positive KB cells; format: cell-based, human; conditions: 5 nM, 37 °C, 1 h
Method: as §1
As folate-receptor positive control, KB cells (derived from human cervical carcinoma; obtained from German Collection of Microorganisms and Cell Cultures), and OC316 cells (derived from human ovarian adenocarcinoma) as negative control were used. For FACS analysis, data of both cell lines see supporting information Figure S5. The cells were cultured in folate deficient RPMI 1640 medium containing 10% FCS, 1% penicillin-streptomycin and HEPES buffer (10 mM, 5 mL) grown at 37 °C in a humidified atmosphere containing 5% CO2. […] To determine the internalized fraction of both new ^18F-folate derivatives, different concentrations (1 and 5 nM) of the labeled agents were incubated with one million KB or OC316 cells at 4 °C and 37 °C. […] After 1h, the supernatant was removed, cells washed with PBS and with an acetate buffer (pH 3).

KB tumor-bearing mice = experiment: µPET imaging in KB tumor-bearing mice; format: in vivo, mouse
Description: as §2

KB-tumor bearing mice = experiment: Ex vivo biodistribution in KB-tumor bearing mice; conditions: 60 min p.i.; for uptake Appendix / uptake Blood / uptake Heart / uptake Inguinal lymph nodes / uptake Intestines (empty) / uptake Left kidney / uptake Liver / uptake Lung / uptake Muscle / uptake Pancreas / uptake Right kidney / uptake Spleen / uptake Stomach (empty) / uptake Tumor: KB xenograft mice
Description: as §2

[4] = blocked with 100 µg native folic acid
[5] = blockade with 100 µg native folic acid

Structure (SMILES): C#CCNC(C[18F])C(=O)O (stereo not drawn) [^18F-Alakyne]
- logD7.4 Value [1]: −1.18 ± 0.03

- still intact after incubation [2]: > 90%
- uptake Blood (healthy balb/c mice): 0.08 ± 0.01 %ID/g tissue
- uptake Heart (healthy balb/c mice): 0.09 ± 0.01 %ID/g tissue
- uptake Inguinal lymph nodes (healthy balb/c mice): 0.18 ± 0.08 %ID/g tissue
- uptake Intestines (empty) (healthy balb/c mice): 0.87 ± 0.57 %ID/g tissue
- uptake Left kidney (healthy balb/c mice): 3.90 ± 0.38 %ID/g tissue
- uptake Liver (healthy balb/c mice): 0.24 ± 0.02 %ID/g tissue
- uptake Lung (healthy balb/c mice): 0.35 ± 0.27 %ID/g tissue
- uptake Muscle (healthy balb/c mice): 0.06 ± 0.01 %ID/g tissue
- uptake Pancreas (healthy balb/c mice): 0.08 ± 0.01 %ID/g tissue
- uptake Right kidney (healthy balb/c mice): 3.99 ± 0.37 %ID/g tissue
- uptake Spleen (healthy balb/c mice): 0.07 ± 0.02 %ID/g tissue
- uptake Blood (healthy balb/c mice; [4]): 0.12 ± 0.05 %ID/g tissue
- uptake Heart (healthy balb/c mice; [4]): 0.11 ± 0.06 %ID/g tissue
- uptake Inguinal lymph nodes (healthy balb/c mice; [4]): 0.10 ± 0.08 %ID/g tissue
- uptake Intestines (empty) (healthy balb/c mice; [4]): 0.33 ± 0.22 %ID/g tissue
- uptake Left kidney (healthy balb/c mice; [4]): 0.40 ± 0.07 %ID/g tissue
- uptake Liver (healthy balb/c mice; [4]): 0.33 ± 0.08 %ID/g tissue
- uptake Lung (healthy balb/c mice; [4]): 0.36 ± 0.11 %ID/g tissue
- uptake Muscle (healthy balb/c mice; [4]): 0.07 ± 0.05 %ID/g tissue
- uptake Pancreas (healthy balb/c mice; [4]): 0.09 ± 0.05 %ID/g tissue
- uptake Right kidney (healthy balb/c mice; [4]): 0.38 ± 0.07 %ID/g tissue
- uptake Spleen (healthy balb/c mice; [4]): 0.11 ± 0.06 %ID/g tissue
- uptake in the bones (in vivo defluorination) (KB tumor-bearing mice; PET): Negligible uptake
- tumor/blood ratio (KB-tumor bearing mice): 5.61
- tumor/muscle ratio (KB-tumor bearing mice): 6.86
- uptake Appendix (KB-tumor bearing mice): 0.13 ± 0.02 %ID/g tissue
- uptake Blood (KB-tumor bearing mice): 0.09 ± 0.04 %ID/g tissue
- uptake Heart (KB-tumor bearing mice): 0.08 ± 0.02 %ID/g tissue
- uptake Inguinal lymph nodes (KB-tumor bearing mice): 0.48 ± 0.14 %ID/g tissue
- uptake Intestines (empty) (KB-tumor bearing mice): 0.42 ± 0.52 %ID/g tissue
- uptake Left kidney (KB-tumor bearing mice): 4.83 ± 0.90 %ID/g tissue
- uptake Liver (KB-tumor bearing mice): 0.18 ± 0.07 %ID/g tissue
- uptake Lung (KB-tumor bearing mice): 0.17 ±0.06 %ID/g tissue
- uptake Muscle (KB-tumor bearing mice): 0.07 ± 0.01 %ID/g tissue
- uptake Pancreas (KB-tumor bearing mice): 0.07 ±0.01 %ID/g tissue
- uptake Right kidney (KB-tumor bearing mice): 4.76 ± 0.89 %ID/g tissue
- uptake Spleen (KB-tumor bearing mice): 0.06 ± 0.02 %ID/g tissue
- uptake Stomach (empty) (KB-tumor bearing mice): 0.82 ± 0.64 %ID/g tissue
- uptake Tumor (KB-tumor bearing mice): 0.48 ± 0.14 %ID/g tissue
- uptake Appendix (KB-tumor bearing mice; [5]): 0.07 ± 0.01 %ID/g tissue
- uptake Blood (KB-tumor bearing mice; [5]): 0.06 ± 0.04 %ID/g tissue
- uptake Heart (KB-tumor bearing mice; [5]): 0.04 ± 0.02 %ID/g tissue
- uptake Inguinal lymph nodes (KB-tumor bearing mice; [5]): 0.04 ± 0.02 %ID/g tissue
- uptake Intestines (empty) (KB-tumor bearing mice; [5]): 0.56 ± 0.81 %ID/g tissue
- uptake Left kidney (KB-tumor bearing mice; [5]): 0.30 ± 0.04 %ID/g tissue
- uptake Liver (KB-tumor bearing mice; [5]): 0.14 ± 0.06 %ID/g tissue
- uptake Lung (KB-tumor bearing mice; [5]): 0.13 ± 0.05 %ID/g tissue
- uptake Muscle (KB-tumor bearing mice; [5]): 0.02 ± 0.01 %ID/g tissue
- uptake Pancreas (KB-tumor bearing mice; [5]): 0.03 ± 0.02 %ID/g tissue
- uptake Right kidney (KB-tumor bearing mice; [5]): 0.30 ± 0.02 %ID/g tissue
- uptake Spleen (KB-tumor bearing mice; [5]): 0.05 ± 0.03 %ID/g tissue
- uptake Stomach (empty) (KB-tumor bearing mice; [5]): 0.22 ± 0.09 %ID/g tissue
- uptake Tumor (KB-tumor bearing mice; [5]): 0.09 ± 0.04 %ID/g tissue
- tumor/liver ratio (KB-tumor bearing mice; liver including gallbladder): 2.58
- reduction of activity in the tumor in the blocked group (KB-tumor bearing mice; preinjection of excess native folic acid): 81%
Structure (SMILES): Nc1nc2ncc(CNc3ccc(C(=O)NC(CCC(=O)NCCOCCOCCOCCn4nnc5c4-c4ccccc4CN(C(=O)CCNC(=O)CCOCCOCCOCC[18F])c4ccccc4-5)C(=O)O)cc3)nc2c(=O)[nH]1 (stereo not drawn) [^18F-DBCO-folate]
- non-specific binding (FR-negative OC316 cells): distinct non-specific binding
- logD7.4 Value [3]: 0.6 ± 0.07 [18]
- fraction of tracer internalized (FR-positive KB cells): about 3%
- fraction of tracer receptor bound (FR-positive KB cells): about 7%
- fraction of tracer remained in solution (FR-positive KB cells): about 90%
- visualization of KB tumors in maximum intensity projection (MIP) PET images (KB tumor-bearing mice; static scan 50-60 min p.i.): impeded
